Assay results reported in patent publication US7914800B2, “LTB4 as vaccine adjuvant” (priority 2001, dated 2011).
Entries after “also recorded” stand apart in the source; their conditions may differ.

Columns and labels:
Influenza = experiment: Anti-Influenza antibody generation in BALB/c mice following immunization with the Fluviral vaccine (ELISA); type: in vivo; conditions: intramuscular
Procedure: To test the adjuvant potential of LTB4, groups of 10 BALB/c mice were immunized once by intramuscular injection with 5 μl of the commercial “Fluviral” vaccine preparation in combination with saline or 1 ng of LTB4. Fourteen days following immunization, mice were bled and sera analyzed for specific anti-Influenza IgG antibodies by ELISA.
Adult (6-8 weeks) BALB/c female mice were immunized by intramuscular injection with 5 μl of the commercial Influenza (Fluviral) vaccine in combination or not with 1 ng of LIB4. Fourteen days later, mice were bled by cardiac puncture and sera obtained. Anti-Influenza antibodies were quantitated by enzyme-linked immunosorbent assay (ELISA). Wells of a 96-well plate were coated with the Fluvial vaccine preparation ( 1/100 dilution) in 0.1 M carbonate buffer (pH 9.0) by overnight incubation at 4° C. Wells were washed with Tris-buffered saline with 0.1% Tween-20 (TBS-T) followed by the addition of 100 μl of increasing dilutions of the sera to be tested. […] After 30 minutes, the absorbance (405 nm) from each well was recorded using an ELISA plate reader. The values, expressed as optical density (OD), were plotted against the reciprocal of serum dilution.

[1] = tested on: mycobacterium tuberculosis; type: in vivo, BALB/c mice; conditions: 1-10 ng LTB4 with BCG vaccine, intradermal on days 0, 24, 68 and 145; sera at day 160
murine CMV [2] = experiment: Total anti-CMV antibodies following acute CMV infection in BALB/c mice (ELISA); type: in vivo; conditions: LTB4 5 μg/kg i.p. 3 times a week for 12 weeks from day 5 post-infection
Procedure: Our next series of experiments were designed to test the potential of LTB4 to modulate antibody response during an acute CMV infection. BALB/c mice were infected by intraperitoneal (i.p.) injection with 10,000 pfu of murine CMV. On day 5 post-infection, mice (n=10) received saline by i.p. injection or LTB4 (5 μg/kg) (n=9) by i.p. injection 3 times a week for 12 weeks. At that time, sera was taken from each mouse and tested for anti-CMV specific antibodies.
Adult (6-8 weeks) female BALB/c mice were infected by intraperitoneal (I.P.) injection with 1×10^4 pfa of murine CMV. Starting on the fifth day post-infection, mice were injected with saline or LTB4 (5 μg/kg) by I.P. injection at a frequency of three times a week for 12 weeks. Mice were then bled and sacrificed. Total anti-CMV antibodies from each mouse were quantified by ELISA. ELISA plates were coated with a lysates from CMV-infected fibroblasts as the source of CMV antigens. One μg of protein lysates were added to each well and incubated-overnight at 4° C. After several washes with TBS-T, non-specific sites were blocked by the addition of saline containing 10% fetal bovine serum for one hour at room temperature. […] After 30 minutes, the absorbance (405 nm) from each well was recorded using an ELISA plate reader. The values, expressed as optical density (OD), were plotted against the reciprocal of serum dilution. […]

murine CMV [3] = experiment: Neutralizing CMV antibodies in sera of CMV-infected mice (plaque reduction on mouse embryonic fibroblast); type: in vivo, BALB/c mice; conditions: the 7 positive sera of LTB4 treated mice; 1/100 dilution; 175 pfu murine CMV
Procedure: Lastly, the sera from each mouse infected with CMV and treated with saline or LTB4 (see above) were analyzed for neutralizing antibodies. Briefly, a 1/100 dilution of individual serum was incubated with 175 pfu of murine CMV for 1 hour on ice. Samples (sera-virus) were then added to mouse embryonic fibroblast and incubated at 37° C. for 2 hour. Unadsorbed viruses were removed and cells were overlaid with methyl cellulose and incubated for 4 days at 37° C. in a humidified atmosphere with 5% CO2. At this time cells were fixed, colored with violet crystal and the number of plaques (CMV infected foci) counted. […] Uninfected mice had no neutralizing antibodies against CMV, as expected. […] We next compared the neutralizing activity of sera that tested positive for CMV neutralization. The 2 sera of infected mice that received saline were able to reduce, in average, CMV infectivity by 24%. In contrast, the 7 sera of LTB4 treated-mice were found capable of reducing CMV infectivity by 45%, almost twice the activity of control mice.
The serum from each mouse, described above, were tested for their CMV neutralizing activity. Briefly, a 1/100 dilution of individual serum was incubated with 175 pfu of murine CMV for 1 hour on ice. […] At this time cells were fixed, colored with violet crystal and the number of plaques (CMV infected foci) counted. […]

B lymphocytes = conditions: cited from earlier work

In the case of `CCCCC/C=C\C[C@@H](O)/C=C/C=C/C=C\[C@@H](O)CCCC(=O)O` [LTB4, Leukotriene B4], the “anti-Influenza IgG antibody response (ELISA OD) versus vaccine + saline” value (Influenza; 1 ng LTB4 with 5 μl Fluviral vaccine, once, sera at day 14, p<0.05 in all three dilutions) is reported as “greater anti-Influenza antibody response; also recorded: significantly higher anti-Influenza antibody response”, the “optimal dose of LTB4 as adjuvant” value (Influenza; with 5 μl Fluviral vaccine) is reported as 1 ng and the “anti-BCG antibodies (ELISA OD) versus BCG + saline” value [1] is reported as “higher levels of anti-BCG antibodies; also recorded: greater reactivity against mycobacterium antigens”. The “total anti-CMV antibodies (ELISA OD) versus saline-treated group” value (murine CMV [2]) was “more anti-CMV antibodies”, the “reduction of CMV infectivity by sera positive for CMV neutralization (average)” value (murine CMV [3]) was 45% and the “effect on B cell proliferation or immunoglobulin synthesis (IgG or IgM)” value (B lymphocytes; LTB4 by itself, in absence of exogenous cytokines or stimuli, in vitro) was “no effects”. The “effect on synthesis of immunoglobulin from B lymphocytes” value (B lymphocytes; conflicting paper (Rola-Plecszczynski 1982)) was “inhibitory effects”.
